Test: Relaxometric properties: longitudinal relaxivity r1p in human plasma
Format: physicochemical
Details: 37° C.
Protocol: The relaxometric properties of some representative complex compounds according to the invention have been determined at different magnetic field strengths, e.g. including 0.47 and 1.41 T, at 37° C. and in different media (physiologic solution and human plasma) and compared with relaxivity values measured, at the same conditions, for some Gd-Complex of the market having an analogous cyclic coordination cage.
The longitudinal water proton relaxation rate (R1=1/T1) was measured at 0.47 T with a Minispec MQ-20 spectrometer (Bruker Biospin, Germany) operating at a proton Larmor frequency of 20 MHz; MR experiments at 1.41 T were performed using a Minispec MQ-60 spectrometer (Bruker Biospin, Germany) operating at a proton Larmor frequency of 60 MHz.
All test articles were used as supplied and diluted in the selected medium (physiologic solution or human plasma) by weighting the required amount of paramagnetic chelated complex to get a 5 or 10 mM starting solution.
Five different concentration samples (0.1, 0.25, 0.5, 0.75 and 1 mM) for each medium have been prepared by further dilution of the starting 5 or 10 mM solution.
Relaxivity measurements were performed at 0.47 T and 1.41 T at a preset temperature sample of 37° C., kept constant by means of a thermostatic bath connected to the sample holder of the spectrometer. The five sample solutions have been preliminary pre-heated at 37° C. in an external thermostatic bath and then left 10 minutes inside the internal bath to assure the stabilization of the temperature. Longitudinal relaxation time T1 was measured by means of a standard inversion recovery sequence, where the inversion time (TI) was varied from 10 ms to at least 5 times T1 in 15 steps. Statistical analysis (mono-exponential fitting for T1 measurement, linear fitting for the evaluation of longitudinal relaxivity) was performed by Mathematica® (Wolfram, USA). Errors on the estimated parameters were evaluated by the fitting procedure.

r1p in human plasma (0.47 T)	r1p in human plasma (1.41 T)	Compound
4.5 mM⁻¹ s⁻¹	3.6 mM⁻¹ s⁻¹	O=C(O)CN1CCN(CC(=O)O)CCN(CC(=O)O)CCN(CC(=O)O)CC1
7.41 mM⁻¹ s⁻¹	6.8 mM⁻¹ s⁻¹	O=C(O)CN1CCN(CC(O)COCC(COCC(O)CN2CCN(CC(=O)O)CCN(CP(=O)(O)O)CCN(CC(=O)O)CC2)OCc2ccccc2)CCN(CC(=O)O)CCN(CP(=O)(O)O)CC1 (stereo not drawn)

Compound	r1p in human plasma (0.47 T)	r1p in human plasma (1.41 T)
CC(O)CN1CCN(CC(=O)O)CCN(CC(=O)O)CCN(CC(=O)O)CC1 (stereo not drawn) (Gd complex, metal not drawn)	4.9 mM⁻¹ s⁻¹	4.15 mM⁻¹ s⁻¹
